Entries after “also recorded” stand apart in the source; their conditions may differ.
Experiments:
[1] = system: human mesenchymal stem cells (hMSCs); assay: Compound treatment: adipogenic differentiation / cell fate switch of hMSCs; assay type: cell-based; settings: for differentiation of hMSCs into mature adipocytes: combined treatment with dexamethasone; for adipogenic differentiation of hMSCs promoted by compound: especially in the presence of dexamethasone (DEX); for cell fate switch from osteogenic to adipogenic: hMSCs treated with the OS media
Protocol: Cells were rinsed with PBS twice, fixed in 10% formalin solution for 20 minutes, rinsed with PBS twice and dH2O once, washed with propylene glycol for 5 minutes, and stained with Oil red in propylene glycol (I2722A, Newcomer Supply) for 30 minutes. Cells were then washed with 85% propylene glycol for 5 minutes, rinsed with dH2O 3 times and preserved in 50% glycerol.
(§1) 8-CPT-cAMP, Na (cat# 116812), 5-Iodotubercidin (cat# 407900), Prostaglandin E2 (PGE2, cat# 538904), SB 202190 (cat# 559388) and U0126 (cat# 662005) were purchased from Calbiochem; N6,2′-O-Dibutyryl-cAMP (cat# D0260-5MG), forskolin (cat# F6886), ascorbic acid 2-phosphate (cat# 49752-10G), β-glycerophosphate (G-6251), dexamethasone (D8893), 3-isobutyl-1-methylxanthine (IBMX, I5879) and Insulin (I 9278) were purchased from Sigma/Aldrich/Fluka.
(§2) Since the targeted genes are all positively involved in intracellular cAMP signaling, we tested the effect of two compounds of opposing function on cAMP production on osteogenic differentiation of hMSCs, ADK inhibitor 5-iodotubercidin and ADCY activator forskolin (Cottam, H. B. et al., J Med Chem 36:3424-3430 (1993); de Souza, N. J. et al., Med Res Rev 3:201-219 (1983)). […] ATP has been shown as a ligand for P2RY11 receptor (Communi et al., 1997). […] The present observations are consistent with the conclusion that […] in hMSCs, and vice versa.

[2] = system: human mesenchymal stem cells (hMSCs); assay: Alizarin red staining for calcium phosphate deposits (ECM mineralization, bone cell maturation); assay type: cell-based; settings: for intensity of alizarin red staining (bone cell maturation), 3+9OS: OS started three days after siRNA transfection and continued for 9 days
Protocol: Cells were rinsed with PBS twice, stained in alizarin red solution (cat# vw3611-2, VWR) for 8 minutes at room temperature, washed with PBS again, fixed in 10% formalin solution (cat# HT-5014, Sigma) for 20 minutes, then rinsed with water and air dried.
Bone cell maturation is accompanied by extracellular matrix (ECM) mineralization (John Bilezikian et al., Principles of bone biology, Vol 1, 2nd edn: Academic Press) (2002)). […] […] These observations are consistent with the conclusion that the targeted genes of the ten effective hit siRNAs not only play inhibitory roles in osteogenic specification of hMSCs, but also in bone cell maturation. […] Furthermore, in osteoporotic patients, the number of adipocytes was increased in the marrow, implying a change of cell fate disposition from osteoblast lineage to adipocyte lineage (Justesen, J. et al., Biogerontology 2:165-171 (2001); Meunier, P. et al., Clin Orthop Relat Res 80:147-154 (1971)). We therefore examined the effect of our hit siRNAs on adipogenic differentiation of hMSCs by combined treatment with an adipogenic inducing cocktail (100 μg/ml IBMX, 1 μM DEX and 10 μg/ml insulin).

[3] = system: human mesenchymal stem cells (hMSCs); assay: Compound treatment: OS-induced osteogenic differentiation of hMSCs (ALP / alizarin red staining); assay type: cell-based; settings: for osteogenic effect of the OS media on hMSCs: compound combined with OS treatment, ALP and/or alizarin red staining
Protocol: as §1, §2

CREB = assay: Western blot of phospho-CREB in transfected hMSCs; assay type: cell-based, human; settings: 3 days after transfection, compared to siCon treated or untreated
Protocol: Cell lyses buffer contains 20 mM Tris pH8.0, 1 mM EDTA, 150 mM NaCl and 0.5% NP-40, and before usage, protease inhibitor cocktail (Cat# p8340, Sigma, 1:100 dilution) and phosphatase inhibitor cocktail 2 (Cat# p5726, sigma, 1:100 dilution) were added. Proteins (60 μg/well) were separated in 12% Novex Tris-Glycine gel (Cat# EC6008 box, Invitrogen) and transferred to Nitrocellulose membrane (Cat# LC2001, Invitrogen) using the XCell II blot module system (Cat# EI9051, Invitrogen). The membrane was blocked in 5% milk/PBST for 1 hour at room temperature, incubated over night at 4 degree with primary antibody, washed 3 times with PBST (0.05% Tween 20 in PBS), followed by one hour incubation with secondary antibody in 5% milk/PBST and 3 times wash with PBST at room temperature. For antibody against pCREB however, PBST was substituted with PBS in all steps except for the last one. Antibody-bound proteins were detected utilizing ECL Western blotting detection reagent (Amersham Biosciences).
Anti-phospho-CREB was purchased from Upstate Biotechnology (cat# 06-519); Anti-phospho-p38 was purchased from Cell signaling technology (cat# 9910).
To find out whether CREB (cAMP Responding Element Binding protein), a common downstream effector of cAMP signaling pathway, is involved in mediating cAMP signaling controlled differentiation of hMSCs, we checked the expression level of the active form of CREB proteins in cells 3 days after siP2RY11, siADK, siGNAS, siSLC12a2 or siCon transfection. […] To further examine the role of CREB in osteogenesis and adipogenesis, a synthetic 24-mer CRE decoy oligonucleotide that can compete with endogenous CRE enhancers for binding proteins was transfected into hMSCs (Park, Y. G. et al., J Biol Chem 274:1573-1580 (1999)), which were then subjected to the treatment of osteogenic or adipogenic induction media.

Q: Which results are given for CCCC(=O)Nc1ncnc2c1ncn2[C@@H]1O[C@@H]2COP(=O)(O)O[C@H]2[C@H]1OC(=O)CCC [DB-cAMP, N6,2′-dibutyryl-cAMP]?
A: differentiation of hMSCs into mature adipocytes [1]: sufficient to differentiate hMSCs into mature adipocytes; adipogenic differentiation of hMSCs promoted by compound [1]: promoted hMSCs to undergo adipogenic differentiation

Q: How did the “intensity of alizarin red staining (bone cell maturation), 3+9OS” value (shortened to “intensity of alizarin red staining … 3+9OS”) [2] turn out when “UGUGCUACACAGUCAUUAC (siRNA; listed as RNA, chemistry not fully specified) [siBIRC4, siRNA targeting baculoviral IAP repeat-containing 4]” was run?
A: weak enhancement

Q: For “UGCGAGCCAAGAUGGACAA (siRNA; listed as RNA, chemistry not fully specified) [siKCNT1, siRNA targeting potassium channel, subfamily T, member 1]”, which “intensity of alizarin red staining … 3+9OS” value [2] is on record?
A: dramatically enhanced

Q: With “CCCAGGUCUCCGAUGAACU (siRNA; listed as RNA, chemistry not fully specified) [siBCL212, siRNA targeting BCL2-like 2]” as the compound, how does the “intensity of alizarin red staining … 3+9OS” value [2] read?
A: modest enhancement

Q: COc1cccc(-c2cc(=O)c3ccccc3o2)c1N [PD98059] was tested. Which “osteogenic effect of the OS media on hMSCs” value [3] did it give?
A: inhibited the osteogenic inducing effect of OS

Q: Which “intensity of alizarin red staining … 3+9OS” value [2] does the source give for “GGAGAUCAACAAGCAUUCA (siRNA; listed as RNA, chemistry not fully specified) [siADCY8, siRNA targeting adenylate cyclase 8]” here?
A: weak enhancement

Q: For CCCCC[C@H](O)/C=C/[C@H]1[C@H](O)CC(=O)[C@@H]1C/C=C\CCCC(=O)O [PGE2, Prostaglandin E2], which “cell fate switch from osteogenic to adipogenic” value (from here on “cell fate switch from osteogenic”) [1] is on record?
A: could switch cell fate determination from osteogenic to adipogenic differentiation

Q: How did the “adipogenic differentiation of hMSCs promoted by compound” value [1] turn out when CC(C)Cn1c(=O)n(C)c(=O)c2[nH]cnc21 [IBMX, 3-isobutyl-1-methylxanthine] was run?
A: promoted hMSCs to undergo adipogenic differentiation

Q: And the “cell fate switch from osteogenic” value [1]?
A: could switch cell fate determination from osteogenic to adipogenic differentiation

Q: What does the source list for Nc1ncnc2c1ncn2[C@@H]1O[C@H](COP(=O)(O)OP(=O)(O)OP(=O)(O)O)[C@@H](O)[C@H]1O [ATP]?
A: siP2RY11 and siSLC12a2 induced osteogenesis in combination with OS (ALP staining) ([3]; OS and ATP added on the third day after siRNA transfection, continued for a week): dosage-dependent inhibitory effect; osteogenic effect of the OS media on hMSCs [3]: inhibited; also recorded: dosage-dependent inhibitory effect; number of cells undergoing adipogenic differentiation ([1]; dosage dependent manner): slightly increases

Q: How did the “intensity of alizarin red staining … 3+9OS” value [2] turn out when “UGCCAAAGAGGAUGUACAU (siRNA; listed as RNA, chemistry not fully specified) [siTBX3, siRNA targeting T-box 3 (ulnar mammary syndrome)]” was run?
A: no significant effect

Q: Nc1ncnc2c1nc(Sc1ccc(Cl)cc1)n2[C@@H]1O[C@@H]2COP(=O)(O)O[C@H]2[C@H]1O [8-CPT-cAMP] was tested. Which “differentiation of hMSCs into mature adipocytes” value [1] did it give?
A: sufficient to differentiate hMSCs into mature adipocytes

Q: And the “adipogenic differentiation of hMSCs promoted by compound” value [1]?
A: promoted hMSCs to undergo adipogenic differentiation

Q: What about the “cell fate switch from osteogenic” value [1] of the same compound?
A: could switch cell fate commitment from osteogenic to adipogenic

Q: And the “cell fate switch from osteogenic” value ([1]; listed as CPT-cAMP)?
A: could switch cell fate determination from osteogenic to adipogenic differentiation

Q: For Oc1ccc(-c2nc(-c3ccncc3)c(-c3ccc(F)cc3)[nH]2)cc1 [SB202190], which “osteogenic effect of the OS media on hMSCs” value [3] is on record?
A: inhibited the osteogenic inducing effect of OS

Q: How did the “intensity of alizarin red staining … 3+9OS” value [2] turn out when “CCCGAAAACAUUGCUAGCA (siRNA; listed as RNA, chemistry not fully specified) [siGBDR1, siRNA targeting putative glialblastoma cell differentiation-related]” was run?
A: dramatically enhanced

Q: What does the source list for “GCCACACAAAGCAGCAACA (siRNA; listed as RNA, chemistry not fully specified) [siADK, siRNA targeting adenosine kinase]”?
A: intensity of alizarin red staining (bone cell maturation), 3+9OS [2]: dramatically enhanced; intensity of alizarin red staining, sequential siRNA then OS ([2]; siRNA initial 2-4 days followed by OS (2+6OS, 3+5OS, 4+4OS), vs siCon): clearly enhanced the intensity of alizarin red staining; also recorded: enhancing effect; level of pCREB protein (Western blot) (CREB): increased

Q: How did the “intensity of alizarin red staining … 3+9OS” value [2] turn out when “UGCGGGUGCUCAACGUGGA (siRNA; listed as RNA, chemistry not fully specified) [siP2RY11, siRNA targeting purinergic receptor P2Y, G-protein coupled, 11]” was run?
A: dramatically enhanced

Q: And the “level of pCREB protein (Western blot)” value (CREB)?
A: increased

Q: For “UCGAAGAUUGAGGACUACU (siRNA; listed as RNA, chemistry not fully specified) [siGNAS, siRNA targeting GNAS complex locus]”, which “intensity of alizarin red staining … 3+9OS” value [2] is on record?
A: dramatically enhanced

Q: And the “level of pCREB protein (Western blot)” value (CREB)?
A: increased

Q: How did the “intensity of alizarin red staining … 3+9OS” value [2] turn out when “CCUCUUCGUGGCUACAUCU (siRNA; listed as RNA, chemistry not fully specified) [siSLC12a2, siRNA targeting solute carrier family 12, member 2]” was run?
A: dramatically enhanced

Q: What about the “level of pCREB protein (Western blot)” value (CREB) of the same compound?
A: increased

Reference: patent publication US7601501B2, “Controlling osteogenesis by inhibition of osteogenic suppressors” (The Scripps Research Institute, priority 2006, dated 2009)
